{"source": "paper PMC5233962", "about": "(Scientific Reports, 2017)", "key": {"MAO": {"test_system": "MAO", "conditions": "cited from earlier work"}, "r5-HT1": {"target": "r5-HT1", "set-up": "method as in PMID 18683917", "conditions": "rat; cited from earlier work"}, "rat brain MAO B": {"target": "T1, rat brain MAO B (Rattus norvegicus, UniProt P19643)", "T1 construct": "the crude homogenates prepared from pooled brain from three rats were used; from tissue; host or cells: Wistar rat brain, crude homogenate", "T1 sequence (P19643 whole entry)": "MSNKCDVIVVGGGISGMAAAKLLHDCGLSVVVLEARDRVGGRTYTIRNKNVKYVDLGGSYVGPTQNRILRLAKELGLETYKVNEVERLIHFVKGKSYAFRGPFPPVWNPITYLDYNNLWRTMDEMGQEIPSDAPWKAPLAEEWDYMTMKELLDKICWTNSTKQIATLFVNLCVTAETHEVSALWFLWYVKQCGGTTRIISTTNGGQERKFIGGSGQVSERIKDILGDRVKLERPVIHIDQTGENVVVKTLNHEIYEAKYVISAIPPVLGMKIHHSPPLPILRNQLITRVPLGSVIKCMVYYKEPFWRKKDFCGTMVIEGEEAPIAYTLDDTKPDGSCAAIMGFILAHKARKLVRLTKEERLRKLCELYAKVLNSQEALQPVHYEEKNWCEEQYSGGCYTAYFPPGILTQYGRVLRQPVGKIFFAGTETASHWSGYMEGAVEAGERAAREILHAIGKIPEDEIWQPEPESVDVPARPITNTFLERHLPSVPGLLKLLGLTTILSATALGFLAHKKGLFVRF", "experiment": "Radiometric IC50 determination, rat brain MAO B", "type": "biochemical", "method": "(§1) The IC50 values of ciproxifan for rat brain MAO (rMAO) were obtained radiometrically using serotonin (5-HT) and phenylethylamine (PEA) as MAO A and MAO B substrates, respectively.\n(§2) Wistar male rats were sacrificed, the brains were quickly excised from the skulls, cleaned of residual meninges and frozen on dry ice. For each experiment the crude homogenates prepared from pooled brain from three rats were used. Enzyme activity of MAO A or MAO B was measured using radioactive substrate (PerkinElmer/NEN): serotonin (5-[2-^14C]-hydroxytryptamine binoxalate) or β-[ethyl-1-^14C]-phenyl-ethyl-amine hydrochloride (PEA), respectively, with the procedure described by Fowler and Tipton 1981[25] with some modification according to Gómez et al.[26]. […] IC50 values were determined in three independent experiments, each performed in duplicates."}, "gpβ1": {"target": "gpβ1", "set-up": "method as in PMID 9808693", "conditions": "guinea pig atrium; cited from earlier work"}, "hH2R": {"target": "hH2R", "set-up": "method as in PMID 12606603", "conditions": "human; cited from earlier work"}, "hα2A": {"target": "hα2A", "set-up": "method as in PMID 12606603", "conditions": "human; cited from earlier work"}, "r5-HT3": {"target": "r5-HT3", "set-up": "method as in PMID 12606603", "conditions": "rat; cited from earlier work"}, "r5-HT2A": {"target": "r5-HT2A", "set-up": "method as in PMID 9808693", "conditions": "rat tail; cited from earlier work"}, "rH3R": {"target": "rH3R", "conditions": "rat H3R; cited from earlier work"}, "[1]": {"target": "human recombinant membrane-bound MAO A (Homo sapiens, UniProt P21397)", "sequence (P21397 whole entry)": "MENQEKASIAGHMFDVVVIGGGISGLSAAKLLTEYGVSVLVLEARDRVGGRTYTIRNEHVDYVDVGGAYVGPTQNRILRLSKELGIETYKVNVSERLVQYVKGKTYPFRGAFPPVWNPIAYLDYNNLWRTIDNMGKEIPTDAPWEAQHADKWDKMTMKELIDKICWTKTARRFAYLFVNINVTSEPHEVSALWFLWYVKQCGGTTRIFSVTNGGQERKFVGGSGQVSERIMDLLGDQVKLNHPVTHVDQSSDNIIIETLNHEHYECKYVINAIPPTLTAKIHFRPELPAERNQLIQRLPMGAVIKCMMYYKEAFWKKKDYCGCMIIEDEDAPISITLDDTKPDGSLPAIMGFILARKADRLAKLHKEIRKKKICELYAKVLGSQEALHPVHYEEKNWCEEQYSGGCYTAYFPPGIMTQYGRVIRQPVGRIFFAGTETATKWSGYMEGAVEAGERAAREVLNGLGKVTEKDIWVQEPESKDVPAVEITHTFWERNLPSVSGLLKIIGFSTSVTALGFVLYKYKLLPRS", "experiment": "Spectrophotometric IC50 determination, human MAO A", "conditions": "IC50 hMAO A, substrate KYN", "procedure": "Enzyme studies were carried out using human recombinant membrane-bound MAO A and MAO B (Sigma-Aldrich, St. Louis, MO). […] For optimal enzyme activity all assays were carried out under potassium phosphate buffered conditions (50 mM, pH = 7.4). […] Data were analysed using GraphPad PRISM version 6. For IC50 determinations initial velocities for each experiment were normalized (expressed as percentage), plotted against inhibitor concentrations and fitted using the non-linear regression “log inhibitor vs. response (three parameters)”. IC50 values were determined in at least three independent experiments, each performed at least in duplicates."}, "mH3R": {"target": "mH3R", "set-up": "method as in PMID 15341517", "conditions": "mouse H3R; cited from earlier work"}, "gp M3": {"target": "gp M3", "set-up": "method as in PMID 9808693", "conditions": "guinea pig ileum; cited from earlier work"}, "hH3R": {"target": "hH3R", "set-up": "method as in PMID 11090094, PMID 12606603, PMID 14660004", "conditions": "human H3R; cited from earlier work"}, "rodent H3R": {"target": "rodent H3R", "experiment": "Affinity at rodent H3R (discussion)", "type": "binding", "conditions": "rodent vs human H3R"}, "[2]": {"target": "T2, human recombinant membrane-bound MAO B (Homo sapiens, UniProt P27338)", "T2 construct": "purchased Sigma-Aldrich", "T2 sequence (P27338 1-520)": "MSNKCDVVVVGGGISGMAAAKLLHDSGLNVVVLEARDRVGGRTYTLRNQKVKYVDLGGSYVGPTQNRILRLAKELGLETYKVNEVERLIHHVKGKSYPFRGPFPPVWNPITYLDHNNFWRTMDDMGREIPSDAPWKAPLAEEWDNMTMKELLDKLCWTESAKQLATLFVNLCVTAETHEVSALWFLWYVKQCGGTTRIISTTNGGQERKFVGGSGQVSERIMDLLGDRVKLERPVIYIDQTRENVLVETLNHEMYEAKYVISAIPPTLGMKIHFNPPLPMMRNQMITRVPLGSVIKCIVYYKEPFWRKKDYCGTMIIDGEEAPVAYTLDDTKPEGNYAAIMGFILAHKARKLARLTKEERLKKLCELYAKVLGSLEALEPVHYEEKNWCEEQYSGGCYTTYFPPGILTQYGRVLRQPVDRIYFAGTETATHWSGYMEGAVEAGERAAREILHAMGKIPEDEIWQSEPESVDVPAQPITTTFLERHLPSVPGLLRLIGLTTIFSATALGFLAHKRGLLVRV", "experiment": "Spectrophotometric IC50 determination, human MAO B", "type": "biochemical", "conditions": "for IC50: spectrophotometric, read-out: IC50 hMAO B"}, "rat brain MAO A": {"target": "T3, rat brain MAO A (Rattus norvegicus, UniProt P21396)", "T3 construct": "the crude homogenates prepared from pooled brain from three rats were used; from tissue; host or cells: Wistar rat brain, crude homogenate", "T3 sequence (P21396 whole entry)": "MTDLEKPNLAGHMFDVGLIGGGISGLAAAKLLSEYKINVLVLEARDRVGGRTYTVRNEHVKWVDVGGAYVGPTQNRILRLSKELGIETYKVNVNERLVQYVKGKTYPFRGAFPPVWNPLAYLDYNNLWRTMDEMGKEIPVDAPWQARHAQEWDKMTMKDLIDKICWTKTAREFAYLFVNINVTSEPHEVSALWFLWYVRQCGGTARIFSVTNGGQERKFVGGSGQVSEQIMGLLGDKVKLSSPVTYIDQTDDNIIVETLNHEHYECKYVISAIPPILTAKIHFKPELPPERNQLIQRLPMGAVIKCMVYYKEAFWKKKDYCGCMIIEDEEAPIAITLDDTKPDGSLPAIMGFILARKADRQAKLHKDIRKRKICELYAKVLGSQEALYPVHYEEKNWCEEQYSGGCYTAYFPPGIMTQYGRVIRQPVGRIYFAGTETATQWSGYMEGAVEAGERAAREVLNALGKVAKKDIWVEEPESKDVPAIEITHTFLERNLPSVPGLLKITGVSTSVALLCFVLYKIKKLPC", "experiment": "Radiometric IC50 determination, rat brain MAO A", "type": "biochemical", "conditions": "substrate 5-HT, rat brain homogenate, read-out: IC50 rMAO A", "method": "as §1, §2"}, "hH4R": {"target": "hH4R", "set-up": "method as in PMID 12606603", "conditions": "human; cited from earlier work"}, "hα2C": {"target": "hα2C", "set-up": "method as in PMID 12606603", "conditions": "human; cited from earlier work"}, "rα1D": {"target": "rα1D", "set-up": "method as in PMID 9808693", "conditions": "rat aorta; cited from earlier work"}, "r5-HT4": {"target": "r5-HT4", "set-up": "method as in PMID 9808693", "conditions": "rat esophagus; cited from earlier work"}, "mkH3R": {"target": "mkH3R", "set-up": "method as in PMID 14660004", "conditions": "monkey H3R; cited from earlier work"}, "[3]": {"set-up": "method as in PMID 18305012", "conditions": "applied i.p. to rats; cited from earlier work"}, "gp5-HT1B": {"target": "gp5-HT1B", "set-up": "method as in PMID 9808693", "conditions": "guinea pig iliac; cited from earlier work"}, "hH1R": {"target": "hH1R", "set-up": "method as in PMID 12606603", "conditions": "human; cited from earlier work"}, "hMAO": {"test_system": "hMAO", "experiment": "Type of inhibition from dilution experiments, both hMAO isoforms", "type": "biochemical, human", "conditions": "dilution experiment, preincubation 10 × IC50, 100-fold dilution", "method": "After preincubation probes were diluted 100-fold, measured at saturated substrate conditions and the remaining enzyme activity was compared to that of MAO preincubated without ciproxifan.\nReversibility of hMAO inhibition by ciproxifan was assessed by dilution experiments. […] The inhibitor volume represented one-tenth of the total preincubation volume. […] Enzymatic conversion rates were determined in the presence of kynuramine for hMAO A and benzylamine for hMAO B at saturating substrate concentrations (10 × KM) under potassium phosphate buffer conditions (50 mM, pH = 7.4)."}, "gp5-HT3": {"target": "gp5-HT3", "set-up": "method as in PMID 9808693", "conditions": "guinea pig ileum; cited from earlier work"}}, "note": "Values joined by “and” are separate entries in the source; they are usually repeats but may differ in a detail not shown here. Equal entries are not always repeated. Where two headings read alike, the source gives them in different places."}
{"smiles": "C[C@H](NCc1ccc(OCc2cccc(F)c2)cc1)C(N)=O", "note": "[Safinamide]", "values": [{"measurement": "Inhibition Type", "setting": "MAO", "value": "Reversible[20]"}]}
{"smiles": "O=C(c1ccc(OCCCc2cnc[nH]2)cc1)C1CC1", "note": "[Ciproxifan, cyclopropyl 4-(3-(1H-imidazol-4-yl)propyloxy)phenyl methanone]", "values": [{"measurement": "Ki", "setting": "r5-HT1", "value": 16.6, "unit": "µM"}, {"measurement": "IC50, MAO B/IC50, MAO A", "setting": "rat brain MAO B; rat brain MAO", "value": 0.4}, {"measurement": "IC50", "setting": "rat brain MAO B; substrate PEA, radiometric, rat brain homogenate, read-out: IC50 rMAO B", "value": "15 µM and 15.4 µM"}, {"measurement": "Ki", "setting": "gpβ1", "value": 12.6, "unit": "µM"}, {"measurement": "Ki", "setting": "hH2R", "value": "> 10", "unit": "µM"}, {"measurement": "Ki", "setting": "hα2A", "value": 0.043, "unit": "µM"}, {"measurement": "Ki", "setting": "r5-HT3", "value": 0.302, "unit": "µM"}, {"measurement": "Ki", "setting": "r5-HT2A", "value": 15.8, "unit": "µM"}, {"measurement": "Ki", "setting": "rH3R", "value": "0.0004 to 0.0062", "unit": "µM"}, {"measurement": "IC50", "setting": "[1]", "value": "11 µM and 11.4 µM"}, {"measurement": "Ki", "setting": "mH3R", "value": "0.0005 to 0.0008", "unit": "µM"}, {"measurement": "Ki", "setting": "gp M3", "value": 3.16, "unit": "µM"}, {"measurement": "Ki", "setting": "hH3R", "value": "0.046 to 0.18", "unit": "µM"}, {"measurement": "Ki at rodent H3R, fold lower than at the human H3R", "setting": "rodent H3R", "value": "30- to 100 fold"}, {"measurement": "IC50, MAO B/IC50, MAO A", "setting": "[2]; human MAO", "value": 0.2}, {"measurement": "preference for MAO B", "setting": "[2]; human MAO B over MAO A", "value": "about 5 fold"}, {"measurement": "IC50", "setting": "[2]; substrate BZA", "value": "4.3 ± 0.7", "unit": "µM"}, {"measurement": "IC50", "setting": "[2]; substrate KYN", "value": "2 µM and 2.1 µM"}, {"measurement": "IC50", "setting": "rat brain MAO A", "value": "38 µM and 37.5 µM"}, {"measurement": "Ki", "setting": "hH4R", "value": 1.86, "unit": "µM"}, {"measurement": "Ki", "setting": "hα2C", "value": 0.063, "unit": "µM"}, {"measurement": "Ki", "setting": "rα1D", "value": 3.98, "unit": "µM"}, {"measurement": "Ki", "setting": "r5-HT4", "value": "> 2", "unit": "µM"}, {"measurement": "Ki", "setting": "mkH3R", "value": 0.041, "unit": "µM"}, {"measurement": "brain concentrations", "setting": "[3]", "value": "≤ 10", "unit": "µM"}, {"measurement": "Ki", "setting": "gp5-HT1B", "value": "> 10", "unit": "µM"}, {"measurement": "Ki", "setting": "hH1R", "value": "> 10", "unit": "µM"}, {"measurement": "Inhibition Type", "setting": "hMAO", "value": "Reversible"}, {"measurement": "Ki", "setting": "gp5-HT3", "value": "> 3.16", "unit": "µM"}]}
{"smiles": "C#CCN(C)[C@H](C)Cc1ccccc1", "note": "[L-Deprenyl]", "values": [{"measurement": "Inhibition Type", "setting": "MAO", "value": "Mixed/Irreversible[33]"}]}
{"smiles": "C#CCN(C)CCCOc1ccc(Cl)cc1Cl", "note": "[Clorgyline]", "values": [{"measurement": "Inhibition Type", "setting": "MAO", "value": "Mixed/Irreversible[33]"}]}
{"smiles": "O=C(NCCN1CCOCC1)c1ccc(Cl)cc1", "note": "[Moclobemide]", "values": [{"measurement": "Inhibition Type", "setting": "MAO", "value": "Reversible[32]"}]}
